System: Clostridioides difficile
Assay: Antibacterial activity against Clostridium difficile ATTC43255 assessed as spore germination inhibition at 45 uM incubated for 60 mins by spectrometry relative to control
Assay type: functional
Conditions: ATTC43255, 1 h

SMILES | inhibition at 45 µM
C#CCOc1ccc(-c2noc(-c3ccc(O)cc3)n2)cc1 | < 10%
OCC#Cc1c[nH]nc1-c1nc(-c2ccc(Oc3ccc(C(F)(F)F)cc3)cc2)no1 | < 10%
O=C(O)c1ccc(-c2nc(-c3ccc(OC4CCCC4)cc3)no2)cc1 | < 10%
Oc1ccc(-c2nc(-c3ccc4oc5ccccc5c4c3)no2)cc1 | < 10%
NCc1ccc(-c2nc(-c3ccc(OC4CC4)cc3)no2)cc1 | 12%
CNCc1ccc(-c2nc(-c3ccc(OC4CCCC4)cc3)no2)cc1 | 37%
NCc1ccc(-c2nc(-c3ccc(Oc4ccc(C(F)(F)F)cc4)cc3)no2)cc1 | 41%
FC(F)(F)c1ccc(Oc2ccc(-c3noc(-c4c[nH]cn4)n3)cc2)cc1 | < 10%
COc1ccc(-c2noc(-c3ccc(CN)cc3)n2)cc1 | < 10%
FC(F)(F)c1ccc(Oc2ccc(-c3noc(-c4ccc(Br)cc4)n3)cc2)cc1 | < 10%
c1cc(-c2noc(-c3ccc4c(c3)CCN4)n2)ccc1OC1CCCC1 | < 10%
O=C(Nc1c[nH]nc1-c1nc(-c2ccc(Oc3ccc(C(F)(F)F)cc3)cc2)no1)c1ccccc1 | < 10%
COc1ccc(-c2noc(-c3ccc(O)cc3)n2)cc1OC | < 10%
FC(F)(F)c1ccc(Oc2ccc(-c3noc(-c4nc[nH]n4)n3)cc2)cc1 | < 10%
FC(F)(F)c1ccc(Oc2ccc(-c3noc(-c4cn[nH]n4)n3)cc2)cc1 | < 10%
N#Cc1ccc(Oc2ccc(-c3noc(-c4ccc(O)cc4)n3)cc2)cc1 | < 10%
O=C(Nc1c[nH]nc1-c1nc(-c2ccc(Oc3ccc(C(F)(F)F)cc3)cc2)no1)c1ccccn1 | < 10%
NCc1ccc(-c2nc(-c3ccc(Oc4ccc(C(F)(F)F)cc4)cn3)no2)cc1 | 24%
NCc1ccc(-c2nc(-c3ccc(OC(F)F)cc3)no2)cc1 | < 10%
Clc1c[nH]nc1-c1nc(-c2ccc(OC3CCCC3)cc2)no1 | < 10%
Oc1ccc(-c2nc(-c3ccc(OC4CCC4)cc3)no2)cc1 | < 10%
FC(F)(F)c1ccc(Oc2ccc(-c3noc(-c4n[nH]cc4Br)n3)cc2)cc1 | < 10%
CCCOc1ccc(-c2noc(-c3ccc(O)cc3)n2)cc1 | < 10%
CC(C)Oc1ncc(-c2nc(-c3cccc4c3CCC4NCCC(=O)O)no2)cc1C#N (configuration not stated) | < 10%

SMILES | inhibition at 45 µM
FC(F)(F)c1ccc(Oc2ccc(-c3noc(-c4n[nH]cc4I)n3)cc2)cc1 | < 10%
Nc1ccc(-c2noc(-c3ccc(O)cc3)n2)cc1 | < 10%
O=[N+]([O-])c1c[nH]c(-c2nc(-c3ccc(OC4CCCC4)cc3)no2)n1 | < 10%
CC(C)(C)Oc1ccc(-c2noc(-c3ccc(O)cc3)n2)cc1 | < 10%
O=Cc1ccc(-c2noc(-c3ccc(O)cc3)n2)cc1 | < 10%
FC(F)(F)c1ccc(Oc2ccc(-c3noc(-c4n[nH]cc4NC4CCCCC4)n3)cc2)cc1 | < 10%
CCC(C)Nc1c[nH]nc1-c1nc(-c2ccc(Oc3ccc(C(F)(F)F)cc3)cc2)no1 (configuration not stated) | < 10%
FC(F)(F)c1ccc(Oc2ccc(-c3noc(-c4c[nH]c5ncccc45)n3)cc2)cc1 | < 10%
O=[N+]([O-])c1cc(-c2nc(-c3ccc(Oc4ccc(C(F)(F)F)cc4)cc3)no2)cnc1O | < 10%
CC(C)(C)OC(=O)NCc1ccc(-c2nc(-c3ccc(Oc4ccc(F)c(F)c4)cc3)no2)cc1 | < 10%
CS(=O)(=O)Nc1ccc(Cc2noc(-c3ccc4[nH]cc(CCN)c4c3)n2)cc1 [L-694247] | < 10%
Oc1ccc(-c2nc(-c3ccc(Oc4ccc(I)cc4)cc3)no2)cc1 | 39%
Nc1ccc(-c2nc(-c3ccc(OC4CCCC4)cc3)no2)cc1 | < 10%
NCc1ccc(-c2nc(-c3ccnc(-c4ccc(C(F)(F)F)cc4)c3)no2)cc1 | 71%
Oc1ccc(-c2nc(-c3ccc(Oc4ccc(C(F)(F)F)cc4)nc3)no2)cc1 | < 10%
NCCCOc1ccc(-c2noc(-c3ccc(O)cc3)n2)cc1 | < 10%
FC(F)(F)c1ccc(Oc2ccc(-c3noc(-c4ccncc4)n3)cc2)cc1 | < 10%
Nc1cncc(-c2nc(-c3ccc(Oc4ccc(C(F)(F)F)cc4)cc3)no2)c1 | < 10%
Oc1ccc(-c2nc(-c3ccc(Oc4ccc(C(F)(F)F)cc4)cc3)no2)cn1 | < 10%
Oc1ccc(-c2nc(-c3ccc(N4CCOCC4)cc3)no2)cc1 | < 10%
CC(C)Cc1ccc(-c2nc(-c3ccc(CN4CC(C(=O)O)C4)cc3)no2)cc1 | < 10%
O=[N+]([O-])c1c[nH]c(-c2nc(-c3ccc(Oc4ccc(C(F)(F)F)cc4)cc3)no2)c1 | < 10%
CCCOc1ccc(-c2noc(-c3ccc(CN)cc3)n2)cc1 | 12%
Oc1ccc(-c2nc(-c3ccc4c(c3)OCO4)no2)cc1 | < 10%

SMILES | inhibition at 45 µM
COc1ccc(-c2nc(-c3ccc(OC4CCCC4)cc3)no2)cc1 | < 10%
O=C(O)c1cccc(-c2noc(-c3ccccc3F)n2)c1 | < 10%
O=[N+]([O-])c1cn(CCO)c(-c2nc(-c3ccc(OC4CCCC4)cc3)no2)n1 | < 10%
NCc1ccc(-c2nc(-c3ccc(OC(F)(F)F)cc3)no2)cc1 | 33%
Nc1cc(-c2nc(-c3ccc(Oc4ccc(C(F)(F)F)cc4)cc3)no2)cnc1O | < 10%
C[C@@H](N)c1nc(-c2ccc(OC3CCCC3)cc2)no1 | < 10%
O=[N+]([O-])c1ccc(-c2nc(-c3ccc(OC4CCCC4)cc3)no2)cc1 | < 10%
CCOc1ccc(-c2noc(-c3ccc(O)cc3)n2)cc1 | < 10%
c1cc2cc(-c3nc(-c4ccc(OC5CCCC5)cc4)no3)ccc2[nH]1 | < 10%
Oc1ccc(-c2nc(-c3ccc(Oc4ccc(C(F)(F)F)cc4)cc3)no2)cc1F | 14%
NCc1ccc(-c2nc(-c3ccc(OC4CCC4)cc3)no2)cc1 | 24%
CCOc1ccc(-c2nc(-c3cccc4c3CCC4NCCO)no2)cc1OCC (configuration not stated) | < 10%
FC(F)(F)c1ccc(Oc2ccc(-c3noc(-c4n[nH]cc4NC4CCCC4)n3)cc2)cc1 | < 10%
N#Cc1ccc(-c2nc(-c3ccc(Oc4ccc(F)cc4)cc3)no2)cc1 | < 10%
O=[N+]([O-])c1cc(Oc2ccc(C(F)(F)F)cc2)cnc1-c1noc(-c2ccc(O)cc2)n1 | < 10%
N#Cc1ccc(-c2nc(-c3ccc(OC4CCCC4)cc3)no2)cc1 | < 10%
Oc1ccc(-c2nc(-c3ccc(OC4CC4)cc3)no2)cc1 | < 10%
COc1ccc(-c2nc(-c3ccc(Oc4ccc(C(F)(F)F)cc4)cc3)no2)cc1[N+](=O)[O-] | < 10%
Oc1ccc(-c2noc(-c3ccc(O)cc3)n2)cc1 | < 10%
NCCCCc1nc(-c2ccc(Oc3ccc(F)cc3)cc2)no1 | < 10%
CC(C)(C)OC(=O)NCc1ccc(-c2nc(-c3ccc(OC4CCCC4)cc3)no2)cc1 | < 10%
O=C1C[C@@H](c2nc(-c3ccc(Oc4ccc(C(F)(F)F)cc4)cc3)no2)CN1 | < 10%
CS(=O)(=O)Nc1ccc(-c2nc(-c3ccc(OC4CCCC4)cc3)no2)cc1 | < 10%
Oc1ccc(-c2nc(N3CCN(c4ccccc4)CC3)no2)cc1 | 18%
